System: 435261-313-R-J1-PDC complex spheroid viability
Experiment: Anticancer human tumor 435261-313-R-J1-PDC patient-derived colon adenocarcinoma cell line growth inhibition [GQUAD]
Settings: for IC50: curve of first compound; for viability, T/C: stronger effect = lower value
In short: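 Tumor cells were grown as complex spheroids with HUVEC endothelial cells and mesenchymal stem cells as stroma. G-quadruplex stabilizers were combined with targeted agents over half-log dilutions from near the clinical Cmax, or from 10 microM.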

[1] = second compound 0.0316 µM, first compound 0.0316 µM
[2] = second compound 0.0316 µM, first compound 0.1 µM
[3] = second compound 0.0316 µM, first compound 0.316 µM
[4] = second compound 0.0316 µM, first compound 1 µM
[5] = second compound 0.0316 µM, first compound 3.16 µM
[6] = second compound 0.0316 µM, first compound 10 µM
[7] = second compound 0.1 µM, first compound 0.0316 µM
[8] = second compound 0.1 µM, first compound 0.1 µM
[9] = second compound 0.1 µM, first compound 0.316 µM
[10] = second compound 0.1 µM, first compound 1 µM
[11] = second compound 0.1 µM, first compound 3.16 µM
[12] = second compound 0.1 µM, first compound 10 µM
[13] = second compound 0.316 µM, first compound 0.0316 µM
[14] = second compound 0.316 µM, first compound 0.1 µM
[15] = second compound 0.316 µM, first compound 0.316 µM
[16] = second compound 0.316 µM, first compound 1 µM
[17] = second compound 0.316 µM, first compound 3.16 µM
[18] = second compound 0.316 µM, first compound 10 µM
[19] = second compound 1 µM, first compound 0.0316 µM
[20] = second compound 1 µM, first compound 0.1 µM
[21] = second compound 1 µM, first compound 0.316 µM
[22] = second compound 1 µM, first compound 1 µM
[23] = second compound 1 µM, first compound 3.16 µM
[24] = second compound 1 µM, first compound 10 µM
[25] = second compound 3.16 µM, first compound 0.0316 µM
[26] = second compound 3.16 µM, first compound 0.1 µM
[27] = second compound 3.16 µM, first compound 0.316 µM
[28] = second compound 3.16 µM, first compound 1 µM
[29] = second compound 3.16 µM, first compound 3.16 µM
[30] = second compound 3.16 µM, first compound 10 µM
[31] = second compound 10 µM, first compound 0.0316 µM
[32] = second compound 10 µM, first compound 0.1 µM
[33] = second compound 10 µM, first compound 0.316 µM
[34] = second compound 10 µM, first compound 1 µM
[35] = second compound 10 µM, first compound 3.16 µM
[36] = second compound 10 µM, first compound 10 µM
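Also: spheroids exposed to the agents for seven days before readout.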
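For viability, T/C in this document: percent of vehicle control viability with DMSO wells as 100%.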

C#Cc1c(F)ccc2cc(O)cc(-c3ncc4c(N5CC6CCC(C5)N6)nc(OCC56CCCN5CC(F)C6)nc4c3F)c12 (stereo not given) + CN(C)c1ccc(Nc2c3ccc(NC(=O)CCN4CCCC4)cc3nc3cc(NC(=O)CCN4CCCC4)ccc23)cc1
IC50 (second compound 0.0316 µM): > 10 µM
IC50 (second compound 0.1 µM): > 10 µM
IC50 (second compound 0.316 µM): > 10 µM
IC50 (second compound 1 µM): > 10 µM
IC50 (second compound 3.16 µM): 3.58 µM
IC50 (second compound 10 µM): 0.199 µM
viability, T/C [1]: 77%
viability, T/C [2]: 118%
viability, T/C [3]: 114%
viability, T/C [4]: 58.1%
viability, T/C [5]: 64.9%
viability, T/C [6]: 48.8%
viability, T/C [7]: 123%
viability, T/C [8]: 110%
viability, T/C [9]: 94.6%
viability, T/C [10]: 99.6%
viability, T/C [11]: 66.1%
viability, T/C [12]: 60.5%
viability, T/C [13]: 89.3%
viability, T/C [14]: 130%
viability, T/C [15]: 82%
viability, T/C [16]: 78%
viability, T/C [17]: 50.7%
viability, T/C [18]: 64%
viability, T/C [19]: 82.5%
viability, T/C [20]: 87.9%
viability, T/C [21]: 103%
viability, T/C [22]: 64.5%
viability, T/C [23]: 62.4%
viability, T/C [24]: 54.7%
viability, T/C [25]: 67.8%
viability, T/C [26]: 65.8%
viability, T/C [27]: 42.2%
viability, T/C [28]: 42.5%
viability, T/C [29]: 56.7%
viability, T/C [30]: 9.31%
viability, T/C [31]: 44.2%
viability, T/C [32]: 73.5%
viability, T/C [33]: 42.1%
viability, T/C [34]: 23.6%
viability, T/C [35]: 19.8%
viability, T/C [36]: 0.2%

CC(=O)O[C@H]1C(=O)[C@@]2(C)[C@H]([C@H](OC(=O)c3ccccc3)[C@]3(O)C[C@H](OC(=O)[C@H](O)[C@@H](NC(=O)c4ccccc4)c4ccccc4)C(C)=C1C3(C)C)[C@]1(OC(C)=O)CO[C@@H]1C[C@@H]2O + CN(C)c1ccc(Nc2c3ccc(NC(=O)CCN4CCCC4)cc3nc3cc(NC(=O)CCN4CCCC4)ccc23)cc1
IC50 (second compound 0.0316 µM): > 10 µM
IC50 (second compound 0.1 µM): > 10 µM
IC50 (second compound 0.316 µM): > 10 µM
IC50 (second compound 1 µM): > 10 µM
IC50 (second compound 3.16 µM): > 10 µM
IC50 (second compound 10 µM): < 0.0316 µM
viability, T/C [1]: 94.3%
viability, T/C [2]: 78.6%
viability, T/C [3]: 84.6%
viability, T/C [4]: 69.9%
viability, T/C [5]: 69.1%
viability, T/C [6]: 76.5%
viability, T/C [7]: 71.9%
viability, T/C [8]: 72.5%
viability, T/C [9]: 77.4%
viability, T/C [10]: 62%
viability, T/C [11]: 75.3%
viability, T/C [12]: 70.5%
viability, T/C [13]: 72.5%
viability, T/C [14]: 82.5%
viability, T/C [15]: 73.7%
viability, T/C [16]: 69.2%
viability, T/C [17]: 68.4%
viability, T/C [18]: 61.5%
viability, T/C [19]: 80.4%
viability, T/C [20]: 61.5%
viability, T/C [21]: 59.4%
viability, T/C [22]: 63.5%
viability, T/C [23]: 73.3%
viability, T/C [24]: 63.6%
viability, T/C [25]: 52.3%
viability, T/C [26]: 52.6%
viability, T/C [27]: 48.6%
viability, T/C [28]: 60.9%
viability, T/C [29]: 52.8%
viability, T/C [30]: 55.1%
viability, T/C [31]: 31.6%
viability, T/C [32]: 19.9%
viability, T/C [33]: 23.6%
viability, T/C [34]: 21.2%
viability, T/C [35]: 27.5%
viability, T/C [36]: 16.8%

CCCS(=O)(=O)Nc1ccc(F)c(C(=O)c2c[nH]c3ncc(-c4ccc(Cl)cc4)cc23)c1F + CN(C)c1ccc(Nc2c3ccc(NC(=O)CCN4CCCC4)cc3nc3cc(NC(=O)CCN4CCCC4)ccc23)cc1
IC50 (second compound 0.0316 µM): 5.69 µM
IC50 (second compound 0.1 µM): 5.64 µM
IC50 (second compound 0.316 µM): 5.35 µM
IC50 (second compound 1 µM): 5.62 µM
IC50 (second compound 3.16 µM): 3.77 µM
IC50 (second compound 10 µM): < 0.0316 µM
viability, T/C [1]: 123%
viability, T/C [2]: 110%
viability, T/C [3]: 143%
viability, T/C [4]: 123%
viability, T/C [5]: 85.6%
viability, T/C [6]: 15.8%
viability, T/C [7]: 84.3%
viability, T/C [8]: 110%
viability, T/C [9]: 120%
viability, T/C [10]: 92.3%
viability, T/C [11]: 81.6%
viability, T/C [12]: 19.6%
viability, T/C [13]: 124%
viability, T/C [14]: 94.6%
viability, T/C [15]: 92.1%
viability, T/C [16]: 128%
viability, T/C [17]: 76.1%
viability, T/C [18]: 19.1%
viability, T/C [19]: 77.3%
viability, T/C [20]: 90.7%
viability, T/C [21]: 105%
viability, T/C [22]: 92.5%
viability, T/C [23]: 77.7%
viability, T/C [24]: 22.1%
viability, T/C [25]: 82%
viability, T/C [26]: 53.6%
viability, T/C [27]: 74.7%
viability, T/C [28]: 112%
viability, T/C [29]: 57.1%
viability, T/C [30]: 10.5%
viability, T/C [31]: 45.5%
viability, T/C [32]: 54.3%
viability, T/C [33]: 33.9%
viability, T/C [34]: 34%
viability, T/C [35]: 33.8%
viability, T/C [36]: 7.35%

COc1ncnc(C2CC2)c1-c1ncc2cnn(Cc3ccc(-c4nc(C(F)(F)F)cn4C(C)C)cc3)c2n1 + CN(C)c1ccc(Nc2c3ccc(NC(=O)CCN4CCCC4)cc3nc3cc(NC(=O)CCN4CCCC4)ccc23)cc1
IC50 (second compound 0.0316 µM): > 10 µM
IC50 (second compound 0.1 µM): > 10 µM
IC50 (second compound 0.316 µM): > 10 µM
IC50 (second compound 1 µM): > 10 µM
IC50 (second compound 3.16 µM): 3.14 µM
IC50 (second compound 10 µM): < 0.0316 µM
viability, T/C [1]: 101%
viability, T/C [2]: 94.3%
viability, T/C [3]: 90%
viability, T/C [4]: 84.2%
viability, T/C [5]: 85.9%
viability, T/C [6]: 75.1%
viability, T/C [7]: 103%
viability, T/C [8]: 89.6%
viability, T/C [9]: 113%
viability, T/C [10]: 94%
viability, T/C [11]: 111%
viability, T/C [12]: 91.8%
viability, T/C [13]: 90.7%
viability, T/C [14]: 94%
viability, T/C [15]: 80.9%
viability, T/C [16]: 64%
viability, T/C [17]: 75.4%
viability, T/C [18]: 80.9%
viability, T/C [19]: 82.6%
viability, T/C [20]: 70.8%
viability, T/C [21]: 76.4%
viability, T/C [22]: 69.8%
viability, T/C [23]: 78.6%
viability, T/C [24]: 77.6%
viability, T/C [25]: 50.5%
viability, T/C [26]: 74.3%
viability, T/C [27]: 69%
viability, T/C [28]: 41.2%
viability, T/C [29]: 56.9%
viability, T/C [30]: 30.2%
viability, T/C [31]: 31.4%
viability, T/C [32]: 33.6%
viability, T/C [33]: 28.8%
viability, T/C [34]: 27.9%
viability, T/C [35]: 32.9%
viability, T/C [36]: 10.7%

COc1ccc([C@@H](O)c2cc(-c3ncnc4cc(N5CCOCC5)ccc34)c(F)cc2Cl)nn1 + Cc1[nH]c2ccc(F)cc2c1-c1nc2c3cccnc3c3ncccc3c2[nH]1
IC50 (second compound 0.0316 µM): 1.08 µM
IC50 (second compound 0.1 µM): 4.22 µM
IC50 (second compound 0.316 µM): 3.42 µM
IC50 (second compound 1 µM): 2.81 µM
IC50 (second compound 3.16 µM): < 0.0316 µM
IC50 (second compound 10 µM): < 0.0316 µM
viability, T/C [1]: 88.7%
viability, T/C [2]: 64.5%
viability, T/C [3]: 88.6%
viability, T/C [4]: 50.8%
viability, T/C [5]: 44.5%
viability, T/C [6]: 30.4%
viability, T/C [7]: 99%
viability, T/C [8]: 97.6%
viability, T/C [9]: 106%
viability, T/C [10]: 70.2%
viability, T/C [11]: 62.7%
viability, T/C [12]: 24.5%
viability, T/C [13]: 63.4%
viability, T/C [14]: 99.4%
viability, T/C [15]: 70.5%
viability, T/C [16]: 87.9%
viability, T/C [17]: 51.8%
viability, T/C [18]: 25.2%
viability, T/C [19]: 67.8%
viability, T/C [20]: 65.3%
viability, T/C [21]: 82%
viability, T/C [22]: 45.2%
viability, T/C [23]: 55.4%
viability, T/C [24]: 20%
viability, T/C [25]: 45.2%
viability, T/C [26]: 30.1%
viability, T/C [27]: 35.5%
viability, T/C [28]: 36.4%
viability, T/C [29]: 13.6%
viability, T/C [30]: 10.9%
viability, T/C [31]: 19.8%
viability, T/C [32]: 21.9%
viability, T/C [33]: 27.1%
viability, T/C [34]: 18.7%
viability, T/C [35]: 13.2%
viability, T/C [36]: 8.61%

Source: PubChem BioAssay AID2060494 (Molecular Pharmacology Branch, DTP, NCI, 2025)
